Counter-ions that a name gives are not always drawn. Like-named read-outs stand apart in the source and are kept apart here.
Tested on: NQO1 specific enzyme activity in BEAS-2B cells
Experiment: BEAS-2B NQO1 MTT assay
Format: cell-based
Details: BEAS-2B cells, 48 hours with compound, MTT readout, read-out: EC50 of NQO1 specific activity induction
How it was run: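 BEAS-2B cells treated with compound 48 h at 37° C, 5% CO2, then lysed; NQO1 activity in lysate measured kinetically by MTT cocktail at Absorbance 570 nm over 30 min. EC50 for induction from Delta OD/min versus log concentration, 3-parameter fit; Cell Titer Glo run on lysate aliquot.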

Compound	EC50 (Homo sapiens, BEAS-2B, 48 h) [nM]	also measured
Cc1ccc(C(CC(=O)O)c2ccc3c(nnn3C)c2C)cc1CN1CCc2cnc(C(C)C)nc2C1 (stereo not shown) [Example 11, Ammonium 3-(1,4-dimethyl-1H-benzo[d][1,2,3]triazol-5-yl)-3-(3-((2-isopropyl-5,6-dihydropyrido[3,4-d]pyrimidin-7(8H)-yl)methyl)-4-methylphenyl)propanoate]	1000 to 10000	
Cc1ccc(C(CC(=O)O)c2ccc3c(nnn3C)c2C)cc1CN(C)Cc1ccc(Br)cc1 (stereo not shown) [Example 16, Ammonium 3-(3-(((4-bromobenzyl)(methyl)amino)methyl)-4-methylphenyl)-3-(1,4-dimethyl-1H-benzo[d][1,2,3]triazol-5-yl)propanoate]	1000 to 10000	
CCn1nnc2c(C)c([C@H](c3ccc(C)c(Cn4ccnc4CN4CCCCC4)c3)[C@@H](C)C(=O)O)ccc21 [Example 210, (2R,3S)-3-(1-Ethyl-4-methyl-1H-benzo[d][1,2,3]triazol-5-yl)-2-methyl-3-(4-methyl-3-((2-(piperidin-1-ylmethyl)-1H-imidazol-1-yl)methyl)phenyl)propanoic Acid]	10 to 100	
Cc1ccc(C(c2ccc3c(nnn3C)c2C)C(C)(C)C(=O)O)cc1Cn1ccnc1CN1C2CCC1CC2 (stereo not shown) [Example 155, 3-(3-((2-(7-Azabicyclo[2.2.1]heptan-7-ylmethyl)-1H-imidazol-1-yl)methyl)-4-methylphenyl)-3-(1,4-dimethyl-1H-benzo[d][1,2,3]triazol-5-yl)-2,2-dimethylpropanoic Acid, Trifluoroacetic Acid Salt]	10 to 100	
CCC1CCN(Cc2nccn2Cc2cc([C@@H](c3ccc4c(nnn4C)c3C)C(C)(C)C(=O)O)ccc2Cl)CC1 [Example 237, (S)-3-(4-Chloro-3-((2-((4-ethylpiperidin-1-yl)methyl)-1H-imidazol-1-yl)methyl)phenyl)-3-(1,4-dimethyl-1H-benzo[d][1,2,3]triazol-5-yl)-2,2-dimethylpropanoic Acid]	< 1	
CC[C@@H]1CN(Cc2cc([C@@H](CC(=O)O)c3ccc4c(nnn4C)c3C)ccc2C)Cc2cccc(F)c2O1 [Example 60, (R)-3-(1,4-Dimethyl-1H-benzo[d][1,2,3]triazol-5-yl)-3-(3-(((R)-2-ethyl-9-fluoro-2,3-dihydrobenzo[f][1,4]oxazepin-4(5H)-yl)methyl)-4-methylphenyl)propanoic acid, Sodium salt]	10 to 100	
CC[C@@H]1CN(Cc2cc(C(c3ccc4c(nnn4C)c3C)C(C)(C)C(=O)O)ccc2C)Cc2cc(F)ccc2O1 (stereo partly drawn) [Example 32, 3-(1,4-Dimethyl-1H-benzo[d][1,2,3]triazol-5-yl)-3-(3-(((R)-2-ethyl-7-fluoro-2,3-dihdyrobenzo[f][1,4]oxaz-epin-4(5H)-yl)methyl)-4-methylphenyl)-2,2-dimethylpropanoic acid, formic acid salt]	1 to 10	
CC[C@@H]1CN(Cc2cc(C(CCc3cn(CC)nn3)C(C)(C)C(=O)O)ccc2C)Cc2ncccc2O1 (stereo partly drawn) [Example 216, 5-(1-Ethyl-1H-1,2,3-triazol-4-yl)-3-(3-(((R)-2-ethyl-2,3-dihydropyrido[2,3-f][1,4]oxazepin-4(5H)-yl)methyl)-4-methylphenyl)-2,2-dimethylpentanoic Acid]	1 to 10	
CC[C@@H]1CN(Cc2cc([C@@H](c3ccc4c(nnn4C)c3C)C(C)(C)C(=O)O)ccc2C)Cc2c(ccnc2F)O1 [Example 222, (S)-3-(1,4-Dimethyl-1H-benzo[d][1,2,3]triazol-5-yl)-3-(3-(((R)-2-ethyl-6-fluoro-2,3-dihydropyrido[3,4-f][1,4]oxazepin-4(5H)-yl)methyl)-4-methylphenyl)-2,2-dimethylpropanoic Acid]	< 1	
Cc1ccc([C@@H](CC(=O)O)c2ccc3c(nnn3C)c2C)cc1CN1CCCC(n2cccn2)C1 (single isomer, unassigned; isomer 1) [Example 157]		EC50: 100 to 1000 nM
CCn1cc(CCC(CC(=O)O)c2ccc(Cl)c(CN3Cc4cccnc4OC(C)(C)C3)c2)nn1 (stereo not shown) [Example 233, 3-(4-Chloro-3-((2,2-dimethyl-2,3-dihydropyrido[3,2-f][1,4]oxazepin-4(5H)-yl)methyl)phenyl)-5-(1-ethyl-1H-1,2,3-triazol-4-yl)pentanoic Acid]	1000 to 10000	
Cc1ccc(C(c2ccc3c(nnn3C)c2C)C(C)(C)C(=O)O)cc1Cn1ccnc1CN1CCCCCC1 (stereo not shown) [Example 151, 3-(3-((2-(Azepan-1-ylmethyl)-1H-imidazol-1-yl)methyl)-4-methylphenyl)-3-(1,4-dimethyl-1H-benzo-[d][1,2,3]triazol-5-yl)-2,2-domethylpropanoic acid, 0.3 formic acid salt]		EC50 (formic acid salt): 1 to 10 nM
CCn1nnc2c(F)c([C@H](c3ccc(C)c(CN4Cc5cccnc5OC(C)(C)C4)c3)[C@@H](C)C(=O)O)ccc21 [Example 195, (2R,3S)-3-(3-((2,2-Dimethyl-2,3-dihydropyrldo[3,2-f][1,4]oxazepin-4(5H)-yl)methyl)-4-methylphenyl)-3-(1-ethyl-4-fluoro-1H-benzo[d][1,2,3]triazol-5-yl)-2-methylpropanoic acid]	10 to 100	
CCC1CCN(Cc2nccn2Cc2cc(C(CCc3cn(CC)nn3)C(C)(C)C(=O)O)ccc2C)CC1 (single isomer, unassigned) [Example 249, 5-(1-ethyl-1H-1,2,3-triazol-4-yl)-3-(3-((2-((4-ethylpiperidin-1-yl)methyl)-1H-imidazol-1-yl)methyl)-4-methylphenyl)-2,2-dimethylpentanoic Acid]		EC50: 1 to 10 nM
CCn1nnc2c(Cl)c([C@H](CC(=O)O)c3ccc(C)c(CN4Cc5ccccc5OC(C)(C)C4)c3)ccc21 [Example 55, (R)-3-(4-Chloro-1-ethyl-1H-benzo[d][1,2,3]triazol-5-yl)-3-(3-((2,2-dimethyl-2,3-dihydrobenzo[f][1,4]oxazepin-4(5H)-yl)methyl)-4-methylphenyl)propanoate, Sodium salt]	10 to 100	
CCn1nnc2c(C)c([C@H](c3ccc(C)c(CN4Cc5cnccc5OC(C)(C)C4)c3)[C@@H](C)C(=O)O)ccc21 [Example 196, (2R,3S)-3-(3-((2,2-Dimethyl-2,3-dihydropyrido[3,4-f][1,4]oxazepin-4(5H)-yl)methyl)-4-methylphenyl)-3-(1-ethyl-4-methyl-1H-benzo[d][1,2,3]triazol-5-yl)-2-methylpropanoic acid, Trifluoroacetic acid salt]	1 to 10	
Cc1ccc([C@@H](c2ccc3c(nnn3C)c2C)C(C)(C)C(=O)O)cc1Cn1ccnc1CC1CCCCCC1 [Example 235, (S)-3-(3-((2-(Cycloheptylmethyl)-1H-imidazol-1-yl)methyl)-4-methylphenyl)-3-(1,4-dimethyl-1H-benzo[d][1,2,3]triazol-5-yl)-2,2-dimethylpropanoic Acid]	< 1	
CCC1CN(Cc2cc(C(CC(=O)O)c3ccc4c(nnn4C)c3C)ccc2C)Cc2ccc(OC)cc2O1 (stereo not shown) [Example 84, 3-(1,4-Dimethyl-1H-benzo[d][1,2,3]triazol-5-yl)-3-(3-((2-ethyl-8-methoxy-2,3-dihdyrobenzo[f][1,4]oxazepin-4(5H)-yl)methyl)-4-methylphenyl)propanoic acid, form acid salt]	100 to 1000	
CCC1CCN(Cc2nccn2Cc2cc(C(CCc3cn(CC)nn3)C(C)(C)C(=O)O)ccc2Cl)CC1 (stereo not shown) [Example 230, 3-(4-Chloro-3-((2-((4-ethylpiperidin-1-yl)methyl)-1H-imidazol-1-yl)methyl)phenyl)-5-(1-ethyl-1H-1,2,3-triazol-4-yl)-2,2-dimethylpentanoic Acid]	1 to 10	
Cc1ccc(C(CC(=O)O)c2ccc3c(nnn3C)c2C)cc1CN1CCCn2cncc2C1 (stereo not shown) [Example 92, 3-(3-((6,7-Dihydro-5H-imidazo[1,5-a][1,4]diazepin-8(9H)-yl)methyl)-4-methylphenyl)-3-(1,4-dimethyl-1H-benzo[d][1,2,3]triazol-5-yl)propanoic acid, Sodium salt]	1000 to 10000	
CC[C@@H]1CN(Cc2cc([C@@H](c3ccc4c(nnn4CC)c3F)[C@@H](C)C(=O)O)ccc2C)Cc2cccc(F)c2O1 [Example 192, (2R,3S)-3-(1-Ethyl-4-fluoro-1H-benzo[d][1,2,3]triazol-5-yl)-3-(3-(((R)-2-ethyl-9-fluoro-2,3-dihydrobenzo[f][1,4]oxazepin-4(5H)-yl)methyl)-4-methylphenyl)-2-methylpropanoic acid]	1 to 10	
CCCn1cc(CCC(c2ccc(C)c(Cn3ccnc3CN3CCC(CC)CC3)c2)C(C)(C)C(=O)O)nn1 (single isomer, unassigned) [Example 248, 3-(3-((2-((4-ethylpiperidin-1-yl)methyl)-1H-imidazol-1-yl)methyl)-4-methylphenyl)-2,2-dimethyl-5-(1-propyl-1H-1,2,3-triazol-4-yl)pentanoic Acid]		EC50: 10 to 100 nM
CC[C@@H]1CN(Cc2cc([C@@H](c3ccc4c(nnn4C)c3C)C(C)(C)C(=O)O)ccc2C)Cc2ccncc2O1 [Example 219, (S)-3-(1,4-Dimethyl-1H-benzo[d][1,2,3]triazol-5-yl)-3-(3-(((R)-2-ethyl-2,3-dihydropyrido[4,3-f][1,4]oxazepin-4(5H)-yl)methyl)-4-methylphenyl)-2,2-dimethylpropanoic Acid, Trifluoroacetate]	1 to 10	
COc1ccc2c(c1)OC(C)(C)CN(Cc1cc([C@@H](CC(=O)O)c3ccc4c(nnn4C)c3C)ccc1C)C2 [Example 167, (R)-3-(1,4-Dimethyl-1H-benzo[d][1,2,3]triazol-5-yl)-3-(3-((8-methoxy-2,2-dimethyl-2,3-dihydrobenzo[f][1,4]oxazepin-4(5H)-yl)methyl)-4-methylphenyl)propanoic acid]	10 to 100	
CC[C@@H]1CN(Cc2cc([C@H](c3ccc4c(nnn4CC)c3C)[C@H](C)C(=O)O)ccc2C)Cc2ccccc2O1 [Example 101, Ammonium (2S,3R)-3-(3-(((R)-2-ethyl-2,3-dihydrobenzo[f][1,4]oxazepin-4(5H)-yl)methyl)-4-methylphenyl)-3-(1-ethyl-4-methyl-1H-benzo[d][1,2,3]triazol-5-yl)-2-methylpropanate]		EC50: < 1 nM

Reference: patent US10604509B2, “Nrf2 regulators” (GlaxoSmithKline Intellectual Property Development Limited, priority 2015, dated 2020)
